These results are taken from PubChem BioAssay (NCI).

Test systems include A549 NSCLC; IGROV1 ovarian; NCI-H226 lung; NCI-H23 lung; NCI-H460 lung; OVCAR-3 ovarian; OVCAR-4 ovarian; OVCAR-8 ovarian; RPMI-8226 leukemia; SK-OV-3 ovarian.
What all share (test): NCI anticancer screen, dose series, 48 h

SMILES strings stand for the structures.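 Each compound was tested at five concentrations against cells in 96-well plates for 48 hours. GI50 = concentration required for 50% inhibition of growth. TGI is the concentration that stops growth completely.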

Consider `N#Cc1ncc(-c2ccc(C(F)(F)F)cc2)c(NC2CCCCCC2)n1`, for which the GI50 in the assay with A549 NSCLC is 47.4 µM; in the assay on IGROV1 ovarian, 38.8 µM; in the assay with NCI-H226 lung, 21.8 µM; in the assay with NCI-H23 lung, 6.48 µM; with NCI-H460 lung it was 11.1 µM; in the assay with OVCAR-3 ovarian, 14.9 µM. Moreover, the GI50 was 20.1 µM in the assay on OVCAR-4 ovarian, 70.8 µM with OVCAR-8 ovarian, 4.99 µM in the assay on RPMI-8226 leukemia and over 100 µM in the assay on SK-OV-3 ovarian. Besides, the TGI in the assay on A549 NSCLC, in the assay on IGROV1 ovarian, in the assay with NCI-H226 lung, in the assay with NCI-H23 lung, with NCI-H460 lung and in the assay with OVCAR-3 ovarian was over 100 µM each time. Also, the TGI in the assay on OVCAR-4 ovarian, with OVCAR-8 ovarian, in the assay with RPMI-8226 leukemia and in the assay on SK-OV-3 ovarian was over 100 µM throughout.

For `c1ccc(C2=Nc3ccccc3N3CNN=C23)cc1`, the GI50 is over 100 µM in the assay with A549 NSCLC; over 100 µM in the assay with IGROV1 ovarian; over 100 µM in the assay on NCI-H226 lung; over 100 µM with NCI-H23 lung; over 100 µM with NCI-H460 lung; 84.4 µM with OVCAR-3 ovarian. Moreover, the GI50 in the assay on OVCAR-4 ovarian was over 100 µM; in the assay with OVCAR-8 ovarian it was over 100 µM; with RPMI-8226 leukemia, 31.6 µM; with SK-OV-3 ovarian, over 100 µM. Besides, the TGI in the assay with A549 NSCLC, in the assay with IGROV1 ovarian, with NCI-H226 lung, in the assay on NCI-H23 lung, in the assay on NCI-H460 lung and in the assay on OVCAR-3 ovarian was over 100 µM each time. Further, the TGI with OVCAR-4 ovarian, in the assay on OVCAR-8 ovarian, in the assay on RPMI-8226 leukemia and in the assay on SK-OV-3 ovarian was over 100 µM throughout.

For the molecule `CCNCCS(=O)(=O)NC[C@@]1(c2ccccc2)SC(NC(=O)C(C)(C)C)=NN1C(=O)C(C)(C)C`, the GI50 in the assay with A549 NSCLC was under 0.01 µM; with IGROV1 ovarian, 2.9 µM; in the assay on NCI-H226 lung, over 100 µM; with NCI-H23 lung it was 0.0282 µM; in the assay on NCI-H460 lung, under 0.01 µM; in the assay with OVCAR-3 ovarian, under 0.01 µM. The GI50 is 35.5 µM in the assay with OVCAR-4 ovarian, under 0.0117 µM in the assay on OVCAR-8 ovarian, under 0.01 µM in the assay on RPMI-8226 leukemia and under 0.01 µM in the assay with SK-OV-3 ovarian. Also, the TGI in the assay on A549 NSCLC was over 100 µM; in the assay on IGROV1 ovarian, over 100 µM; in the assay with NCI-H226 lung, over 100 µM; in the assay on NCI-H23 lung, over 100 µM; with NCI-H460 lung it was over 41.9 µM; with OVCAR-3 ovarian, over 100 µM. The TGI in the assay with OVCAR-4 ovarian, in the assay with OVCAR-8 ovarian, with RPMI-8226 leukemia and in the assay on SK-OV-3 ovarian was over 100 µM each time.

Take `C/C(=N\O)C1CC(CC(=O)O)C1(C)C` (centres undefined): the TGI in the assay on A549 NSCLC, with IGROV1 ovarian, with NCI-H226 lung, with NCI-H23 lung, with NCI-H460 lung and with OVCAR-3 ovarian was over 100 µM each time. In addition, the TGI in the assay on OVCAR-4 ovarian, in the assay with OVCAR-8 ovarian, in the assay on RPMI-8226 leukemia and in the assay with SK-OV-3 ovarian was over 100 µM throughout.

Regarding `N#CC(Cl)CS(=O)(=O)c1ccccc1` (centres undefined), the TGI in the assay on A549 NSCLC was found to be 41.7 µM; with IGROV1 ovarian it was 38 µM; with NCI-H226 lung it was 46.7 µM; in the assay on NCI-H23 lung, 33.5 µM; in the assay with NCI-H460 lung, 38.8 µM; in the assay with OVCAR-3 ovarian it was 7.17 µM. The TGI in the assay on OVCAR-4 ovarian came to 4.24 µM; in the assay on OVCAR-8 ovarian, 11.1 µM; in the assay on RPMI-8226 leukemia it was 14.1 µM; in the assay on SK-OV-3 ovarian it was 33.6 µM.

With `COc1cccc(N2C(=N)/C(=C3\Nc4ccccc4S3)CC2=O)c1`, the GI50 with A549 NSCLC is 5.49 µM; in the assay with IGROV1 ovarian it was 7.58 µM; in the assay on NCI-H226 lung, 38.3 µM; in the assay with NCI-H23 lung, 39.4 µM; with NCI-H460 lung, 2.89 µM; with OVCAR-3 ovarian it was 14.8 µM. In addition, the GI50 was 12.1 µM in the assay on OVCAR-4 ovarian, 7.9 µM with OVCAR-8 ovarian, 2.73 µM in the assay on RPMI-8226 leukemia and 1.77 µM in the assay with SK-OV-3 ovarian. The TGI with A549 NSCLC was over 100 µM; in the assay with IGROV1 ovarian, over 100 µM; in the assay with NCI-H226 lung, over 100 µM; with NCI-H23 lung it was over 100 µM; with NCI-H460 lung, 26.3 µM; with OVCAR-3 ovarian it was over 100 µM. Also, the TGI was 71.9 µM with OVCAR-4 ovarian, over 100 µM in the assay on OVCAR-8 ovarian, over 100 µM in the assay with RPMI-8226 leukemia and over 100 µM in the assay with SK-OV-3 ovarian.

Consider `CN(C)CC1CCCC/C1=N\OC(=O)c1ccccc1` (centres undefined), for which the TGI in the assay on A549 NSCLC, in the assay on IGROV1 ovarian, with NCI-H226 lung, with NCI-H23 lung, in the assay on NCI-H460 lung and with OVCAR-3 ovarian was over 100 µM each time. In addition, the TGI in the assay on OVCAR-4 ovarian, in the assay with OVCAR-8 ovarian, in the assay on RPMI-8226 leukemia and in the assay with SK-OV-3 ovarian was over 100 µM each time.

Consider `Cc1ccc(/C=C(/C#N)n2nnc3cccc(F)c32)cc1`, for which the GI50 with A549 NSCLC was 0.696 µM; in the assay with IGROV1 ovarian, 0.453 µM; in the assay on NCI-H226 lung, 1.76 µM; in the assay with NCI-H23 lung, 0.461 µM; with NCI-H460 lung it was 0.35 µM; in the assay with OVCAR-3 ovarian, 0.227 µM. In addition, the GI50 in the assay with OVCAR-4 ovarian is 1.01 µM; with OVCAR-8 ovarian, 0.594 µM; with RPMI-8226 leukemia, 0.391 µM; in the assay with SK-OV-3 ovarian, 0.931 µM. The TGI was 44.5 µM in the assay with A549 NSCLC; 10.6 µM in the assay with IGROV1 ovarian; 8.31 µM with NCI-H226 lung; 12 µM with NCI-H23 lung; 2.13 µM in the assay on NCI-H460 lung; 0.536 µM in the assay on OVCAR-3 ovarian. Also, the figures for the TGI in the assay with OVCAR-4 ovarian, in the assay on OVCAR-8 ovarian and with SK-OV-3 ovarian were 33.1 µM, over 100 µM and 55.1 µM, respectively.
